Results: ChEMBL document CHEMBL1158323, “Biomimetic cyclization of cnicin to malacitanolide, a cytotoxic eudesmanolide from Centaurea malacitana” (J Nat Prod, 1997)
≈ marks a conversion by molar mass, not a printed value.

Legend:
Format in all cases: functional, cell-based
[1] = Cytotoxicity against mouse SCHABEL cells
[2] = system: A549; experiment: Cytotoxicity against human A549 cells
[3] = system: P388; experiment: Cytotoxicity against mouse P388 cells
[4] = system: HT-29; experiment: Cytotoxicity against human HT29 cells
[5] = system: SK-MEL-28; experiment: Cytotoxicity against human SK-MEL-28 cells

Structure (SMILES)	IC50 [1]	IC50 [2]	IC50 [3]	IC50 [4]	IC50 [5]
C=C1C(=O)O[C@@H]2/C=C(\CO)CC/C=C(\C)C[C@H](OC(=O)/C(C)=C\COC(C)=O)[C@@H]12	2.5 µg/mL (≈ 6.18 µM)	5 µg/mL	2.5 µg/mL	5 µg/mL	5 µg/mL (≈ 12.4 µM)
C=C1C(=O)O[C@@H]2/C=C(\CO)CC/C=C(\C)C[C@H](OC(=O)C(=C)[C@H](O)CO)[C@@H]12 [CNICIN]	–	13.2 µM	6.6 µM	13.2 µM	–
C=C1C(=O)O[C@H]2[C@H]1[C@@H](OC(=O)C(=C)[C@@H](O)CO)C[C@]1(C)[C@@H]2[C@@H](C=O)CC[C@H]1O [MALACITANOLIDE]	0.12 µg/mL (≈ 0.304 µM)	0.12 µg/mL	0.12 µg/mL	0.12 µg/mL	0.12 µg/mL (≈ 0.304 µM)
